Where two headings read alike, the source gives them in different places.
Columns and labels:
[1] = system: Mouse mammary carcinoma 4T1 cells; test: Anchorage-independent tumor cell growth assay; assay type: cell-based
Procedure: Cells are cultured for 2 h and inhibitors are added at various concentrations in a final concentration of 0.1% DMSO. After 48 h, cell growth is assayed with the cell counting kit-8 (Wako Pure Chemical), which uses a water soluble tetrazolium salt WST8. Twenty μL of the reagent is added into each well and cells are further cultured for 2 h. The optical density is measured at 450 nm.

[2] = system: Jurkat T human leukemic cell line; test: In vitro T cell migration assay; assay type: cell-based
Procedure: Inhibitory activities of FAK inhibitors on the mobility of immune cells are secured by the following in vitro study. […] Cell mobility is appraised through the number of cells migrated into lower chamber by labeling with calcein-AM (Molecular Probes, Netherlands) at 8 μg/ml in HBSS for 1 h.

FAK (Tyr397) = FAK (Tyr397) (Mus musculus, UniProt P34152); test: Phosphorylation levels of FAK at Tyr397 (sandwich ELISA, 4T1 cells)
Chain of FAK (Tyr397) (P34152 whole entry, the tested form may be a part): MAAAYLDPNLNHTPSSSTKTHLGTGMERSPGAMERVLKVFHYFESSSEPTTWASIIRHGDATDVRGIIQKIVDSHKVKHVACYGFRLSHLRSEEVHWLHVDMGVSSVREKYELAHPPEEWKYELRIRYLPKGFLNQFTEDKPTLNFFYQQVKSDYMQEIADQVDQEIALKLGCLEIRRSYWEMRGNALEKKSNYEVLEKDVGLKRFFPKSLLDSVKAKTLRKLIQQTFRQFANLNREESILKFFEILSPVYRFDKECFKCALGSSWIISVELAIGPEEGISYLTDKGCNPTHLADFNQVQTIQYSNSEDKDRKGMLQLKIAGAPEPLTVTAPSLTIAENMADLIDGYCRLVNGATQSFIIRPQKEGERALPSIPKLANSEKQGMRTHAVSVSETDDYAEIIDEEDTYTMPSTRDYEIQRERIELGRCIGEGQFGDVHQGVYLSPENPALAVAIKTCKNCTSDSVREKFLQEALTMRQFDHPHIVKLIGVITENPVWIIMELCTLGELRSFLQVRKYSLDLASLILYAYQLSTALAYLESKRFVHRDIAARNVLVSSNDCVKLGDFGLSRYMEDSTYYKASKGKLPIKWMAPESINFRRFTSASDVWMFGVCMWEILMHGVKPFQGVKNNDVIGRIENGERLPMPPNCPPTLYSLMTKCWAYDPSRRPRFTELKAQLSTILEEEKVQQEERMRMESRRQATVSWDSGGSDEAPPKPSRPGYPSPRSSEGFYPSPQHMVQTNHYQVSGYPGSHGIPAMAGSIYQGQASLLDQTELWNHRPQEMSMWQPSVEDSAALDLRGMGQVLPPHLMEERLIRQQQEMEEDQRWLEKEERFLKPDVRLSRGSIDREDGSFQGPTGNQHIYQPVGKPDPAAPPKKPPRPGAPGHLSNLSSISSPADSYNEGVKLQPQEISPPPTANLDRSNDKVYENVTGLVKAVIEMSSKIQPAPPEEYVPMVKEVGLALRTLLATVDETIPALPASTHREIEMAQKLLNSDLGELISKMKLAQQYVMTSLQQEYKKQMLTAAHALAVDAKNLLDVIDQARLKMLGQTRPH
Procedure: Phosphorylation levels of FAK at Tyr397 is quantified by the sandwich ELISA. Mouse mammary carcinoma 4T1 cells (1×10^5) are plated in wells of 96-well culture plates and incubated with or without various concentrations of inhibitors for 1 h in Dulbecco's modified eagle medium containing 0.5% BSA. The medium is removed and cells are lysed in 200 μL 50 mM Tris-HCl, pH 7.4, containing 1% NP-40, 0.25% sodium deoxycholate, 150 mM NaCl, 1 mM EDTA, 1 mM PMSF, 1 mM Na3VO4, 1 mM NaF, 1 μg/mL aprotinin, 1 μg/mL leupeptin and 1 μg/mL pepstatin. […] The concentration of compound causing 50% reduction of phosphorylation level of FAK is determined.

human FAK kinase domain = human FAK kinase domain (Homo sapiens, UniProt Q05397); test: FAK assay (FRET, Biot-Y397 peptide)
Chain of human FAK kinase domain (Q05397 384-706): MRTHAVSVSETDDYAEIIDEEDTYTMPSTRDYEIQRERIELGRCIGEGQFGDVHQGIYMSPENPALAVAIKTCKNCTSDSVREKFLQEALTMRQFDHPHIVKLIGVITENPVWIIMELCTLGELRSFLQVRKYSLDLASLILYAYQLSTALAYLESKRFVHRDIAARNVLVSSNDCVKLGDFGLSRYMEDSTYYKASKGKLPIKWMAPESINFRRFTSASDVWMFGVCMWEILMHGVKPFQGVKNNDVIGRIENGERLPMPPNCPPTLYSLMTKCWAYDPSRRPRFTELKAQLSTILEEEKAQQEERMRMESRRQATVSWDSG
Procedure: All steps are performed in a 96-well black microtiter plate. […] The enzyme reaction is started by addition of 5 μL of 5 μM ATP in water and the mixture is incubated for 3 hours at 37° C. […] The results are shown as percent inhibition of enzyme activity. […] IC50 values are determined by non-linear curve fit analysis using the OriginPro 6.1 program (OriginLab).

human IGF-IR = target: T1, human IGF-IR (Homo sapiens, UniProt P08069); test: IGF-I induced IGF-IR autophosphorylation, cellular Capture ELISA; assay type: cell-based; details: read-out: IGF-1R IC50
T1 construct: transfected with human IGF-IR cDNA (complete human IGF-IR cDNA); expressed in transfected cells; host or cells: NIH-3T3 mouse fibroblasts
T1 sequence (P08069 31-1367): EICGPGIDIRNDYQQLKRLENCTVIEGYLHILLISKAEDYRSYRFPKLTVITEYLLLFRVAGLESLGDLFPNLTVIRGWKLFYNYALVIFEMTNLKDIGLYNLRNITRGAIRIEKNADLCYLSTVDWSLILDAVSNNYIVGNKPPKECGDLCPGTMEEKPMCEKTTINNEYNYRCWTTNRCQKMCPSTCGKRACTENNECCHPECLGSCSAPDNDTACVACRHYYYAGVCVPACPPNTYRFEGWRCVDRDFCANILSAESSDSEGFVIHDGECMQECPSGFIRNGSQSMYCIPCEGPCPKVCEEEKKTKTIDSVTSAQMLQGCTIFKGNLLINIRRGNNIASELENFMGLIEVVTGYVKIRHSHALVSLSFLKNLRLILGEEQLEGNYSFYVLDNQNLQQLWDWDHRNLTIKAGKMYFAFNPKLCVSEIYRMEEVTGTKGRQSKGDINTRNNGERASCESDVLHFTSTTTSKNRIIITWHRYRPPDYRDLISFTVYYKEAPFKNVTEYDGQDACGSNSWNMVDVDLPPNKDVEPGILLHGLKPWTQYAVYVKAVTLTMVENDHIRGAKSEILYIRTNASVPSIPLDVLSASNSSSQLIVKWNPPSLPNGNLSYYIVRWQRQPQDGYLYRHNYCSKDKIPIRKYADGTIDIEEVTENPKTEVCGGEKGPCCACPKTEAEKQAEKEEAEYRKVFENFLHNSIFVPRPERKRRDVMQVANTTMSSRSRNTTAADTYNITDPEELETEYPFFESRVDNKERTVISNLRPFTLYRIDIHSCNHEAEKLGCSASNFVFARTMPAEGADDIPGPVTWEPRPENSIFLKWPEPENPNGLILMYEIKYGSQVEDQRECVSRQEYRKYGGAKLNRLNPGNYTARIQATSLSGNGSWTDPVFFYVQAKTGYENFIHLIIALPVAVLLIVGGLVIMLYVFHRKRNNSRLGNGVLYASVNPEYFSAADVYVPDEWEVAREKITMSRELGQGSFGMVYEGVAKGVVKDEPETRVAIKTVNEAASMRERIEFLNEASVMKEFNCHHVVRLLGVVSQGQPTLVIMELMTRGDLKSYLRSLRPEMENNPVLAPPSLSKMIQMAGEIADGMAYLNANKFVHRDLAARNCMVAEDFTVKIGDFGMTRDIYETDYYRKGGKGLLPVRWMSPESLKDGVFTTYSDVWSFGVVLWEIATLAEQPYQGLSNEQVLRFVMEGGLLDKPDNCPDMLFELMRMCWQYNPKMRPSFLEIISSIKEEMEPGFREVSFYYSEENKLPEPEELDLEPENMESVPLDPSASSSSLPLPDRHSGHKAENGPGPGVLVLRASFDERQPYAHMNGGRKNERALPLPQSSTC
Procedure: In this assay the activity of the compounds of the invention against Insulin-like growth factor I (IGF-I) induced autophosphorylation of the IGF-IR is determined.
The cells which overexpress human IGF-IR are cultured in Dulbecco's minimal essential (DMEM) medium, containing 10% Fetal Calf Serum (FCS). […] On day 3 the medium is discarded and the cells are incubated for 24 h in minimal medium (DMEM, containing 0.5% FCS).
The medium is discarded and the cells are washed twice with PBS/O (=Phosphate-Buffered Saline without CaCl2) and lysed for 15 min on ice with 50 μl/well RIPA-buffer [50 mM Tris.HCl, pH=7.2, 120 mM NaCl, 1 mM EDTA, 6 mM EGTA, 1% NP-40, 20 mM NaF, 1 mM benzamidine, 15 mM sodium pyrophosphate, 1 mM Phenyl methyl sulphonyl fluoride (PMSF) and 0.5 mM Na3VO4] and shaken for 10 min using a 96-well plate shaker (=cellular extracts).
The plates are washed twice with 0.05% (v/v) Tween-20 in Phosphate-Buffered Saline (PBS) and once with nanopure H2O. […] After blocking, the plates are washed once with nanopure H2O.
After incubating the extracts and the secondary antibody for 2 h at 4° C., the extracts are discarded, the plates are washed twice with 0.05% (v/v) Tween-20 in PBS and once with nanopure water.
90 μl/well AP substrate (CDP-Star; obtained from Tropix; Cat. No.: MS100RY) are then added and the plates are incubated for 45 min at RT in the dark, followed by measuring AP activity in a Packard Top Count Microplate Scintillation Counter. The IC50 values for the compounds of formula I are calculated via linear regression analysis using the GraphPad Instat program (GraphPad Software, USA).

| IC50 [2] | Structure (SMILES) | also measured |
| --- | --- | --- |
| – | CNS(=O)(=O)c1ccccc1Nc1nc(Nc2cccc3c2CCCC3)ncc1Br [Example 3-31] | IC50 [1]: 5000 nM |
| 280 nM | CNS(=O)(=O)c1ccccc1Nc1nc(Nc2cc(N3CCOCC3)ccc2OC)ncc1Br [Example 3-32] | – |
| 90 nM | CNS(=O)(=O)c1ccccc1Nc1nc(Nc2ccc(OC3CCN(C)CC3)cc2OC)ncc1Br [Example 3-33] | – |
| 130 nM | CNS(=O)(=O)c1ccccc1Nc1nc(Nc2cc(N3CCN(C(C)=O)CC3)ccc2OC)ncc1Br [Example 3-34] | – |
| 800 nM | CNS(=O)(=O)c1ccccc1Nc1nc(Nc2cc(OCCN3CCOCC3)ccc2OC)ncc1Br [Example 3-35] | – |
| 1000 nM | CNS(=O)(=O)c1ccccc1Nc1nc(Nc2ccc(N3CCN(C)CC3)cc2OC)ncc1Br [Example 3-39] | – |
| 300 nM | CNS(=O)(=O)c1ccccc1Nc1nc(Nc2ccc(N3CCN(C(C)=O)CC3)cc2OC)ncc1Br [Example 3-46] | – |
| 210 nM | CNS(=O)(=O)c1ccccc1Nc1nc(Nc2cc(N(C)C)ccc2OC)ncc1Br [Example 3-64] | – |
| 580 nM | CNS(=O)(=O)c1ccccc1Nc1nc(Nc2cc(N3CCC(N4CCCCC4)CC3)ccc2OC)ncc1Br [Example 3-69] | – |
| 700 nM | CNS(=O)(=O)c1ccccc1Nc1nc(Nc2cc(OC3CCN(C)CC3)ccc2OC)ncc1Br [Example 3-76] | – |
| – | CNS(=O)(=O)c1ccccc1Nc1nc(Nc2ccc(OC3CCN(C)C3)cc2OC)ncc1Br (stereo not shown) [Example 3-82] | IC50 (FAK (Tyr397)): 200 nM; IC50 (human FAK kinase domain): 4.8 nM; IC50 ([1]; Mus musculus, 4T1): 70 nM |
| – | CNS(=O)(=O)c1ccccc1Nc1nc(Nc2ccc(-n3ccnc3C)cc2OC)ncc1Br [Example 3-83] | IC50 [1]: 320 nM |
| 250 nM | CNC(=O)c1ccccc1Nc1nc(Nc2cc(N3CCOCC3)ccc2OC)ncc1Cl [Example 7-6] | – |
| 310 nM | CNC(=O)c1ccccc1Nc1nc(Nc2ccc(N3CCC(NC)C3)cc2OC)ncc1Cl (stereo not shown) [Example 7-12] | – |
| 1000 nM | CNC(=O)c1ccccc1Nc1nc(Nc2cc(N3CCN(C(C)=O)CC3)ccc2OC)ncc1Cl [Example 7-30] | – |
| 40 nM | CNC(=O)c1ccccc1Nc1nc(Nc2ccc(N3CCOCC3)cc2OC)ncc1Cl [Example 7A, 2-[5-Chloro-2-(2-methoxy-4-morpholin-4-yl-phenylamino)-pyrimidin-4-ylamino]-N-methyl-benzamide] | – |
| – | CNC(=O)c1ccccc1Nc1nc(Nc2cc(F)ccc2OC)ncc1Br [Example 8-3] | IC50 [1]: 1000 nM |
| 600 nM | CCNC(=O)c1ccccc1Nc1nc(Nc2ccc(N3CCOCC3)cc2OC)ncc1Cl [Example 9-1] | – |
| – | CCNC(=O)c1ccccc1Nc1nc(Nc2ccc(N3CCC(N4CCCCC4)CC3)cc2OC)ncc1Cl [Example 9-3] | IC50 (FAK (Tyr397)): 100 nM; IC50 (human FAK kinase domain): 18 nM; IC50 ([1]; Mus musculus, 4T1): 370 nM |
| 300 nM | CCNC(=O)c1ccccc1Nc1nc(Nc2ccc(OC3CCN(C)CC3)cc2OC)ncc1Cl [Example 9-6] | – |
| 220 nM | COc1cc(N2CCOCC2)ccc1Nc1ncc(Cl)c(Nc2cccc3c2C(=O)N(C)C3)n1 [Example 12-1, 7-[5-Chloro-2-(2-methoxy-4-morpholin-4-yl-phenylamino)-pyrimidin-4-ylamino]-2-methyl-2,3-dihydro-isoindol-1-one] | – |
| 280 nM | COc1cc(N2CCOCC2)ccc1Nc1ncc(Cl)c(Nc2ccccc2C(=O)N(C)C)n1 [Example 14-1] | – |
| 1000 nM | COc1cc(N2CCOCC2)ccc1Nc1ncc(Cl)c(Nc2ccccc2C(=O)NC(C)C)n1 [Example 14-2] | – |
| – | CNC(=O)c1cc(N2CCCC2)ccc1Nc1nc(Nc2ccc(N3CCOCC3)cc2OC)ncc1Cl [Example 15-3] | IC50 (FAK (Tyr397)): 2000 nM; IC50 (human FAK kinase domain): 44 nM; IC50 ([1]; Mus musculus, 4T1): 1670 nM |
| 290 nM | CNC1CCN(c2ccc(Nc3ncc(Cl)c(Nc4ccccc4S(=O)(=O)NC(C)C)n3)c(OC)c2)C1 (stereo not shown) [Example 19-1] | – |

| IC50 [2] | Structure (SMILES) | also measured |
| --- | --- | --- |
| 70 nM | COc1cc(N2CCN(C)CC2)ccc1Nc1ncc(Cl)c(Nc2ccccc2S(=O)(=O)NC(C)C)n1 [Example 19-5] | IC50 (human IGF-IR): 470 nM; IC50 ([1]; Mus musculus, 4T1): 670 nM |
| 290 nM | COc1cc(N2CCOCC2)ccc1Nc1ncc(Cl)c(Nc2ccccc2S(=O)(=O)NC(C)C)n1 [Example 19-8] | – |
| 300 nM | CC(C)NS(=O)(=O)c1ccccc1Nc1nc(Nc2ccc(OC3CCN(C)CC3)cc2F)ncc1Cl [Example 19-28] | – |
| 250 nM | CNS(=O)(=O)c1ccccc1Nc1nc(Nc2ccc(N3CCOCC3)cc2OC)ncc1Cl [Example 20-1] | – |
| 750 nM | CNS(=O)(=O)c1ccccc1Nc1nc(Nc2ccc(N3CCN(C(C)=O)CC3)cc2OC)ncc1Cl [Example 20-2] | – |
| 49000 nM | CNS(=O)(=O)c1ccccc1Nc1nc(Nc2ccc(N3CCN(C)CC3)cc2OC)ncc1Cl [Example 20-6] | – |
| 290 nM | CNS(=O)(=O)c1ccccc1Nc1nc(Nc2ccc(N3CCC(N4CCCCC4)CC3)cc2OC)ncc1Cl [Example 20-8] | IC50 (FAK (Tyr397)): 170 nM; IC50 (human FAK kinase domain): 6.8 nM; IC50 ([1]; Mus musculus, 4T1): 50 nM |
| – | CNS(=O)(=O)c1ccccc1Nc1nc(Nc2ccc(OC3CCN(C)C3)cc2OC)ncc1Cl (stereo not shown) [Example 20-29] | IC50 (FAK (Tyr397)): 200 nM; IC50 (human FAK kinase domain): 6.1 nM; IC50 (human IGF-IR): 310 nM; IC50 ([1]; Mus musculus, 4T1): 50 nM |
| – | CCC(C)NS(=O)(=O)c1ccccc1Nc1nc(Nc2ccc(N3CCN(C)CC3)cc2OC)ncc1Cl (stereo not shown) [Example 21-1] | IC50 (human IGF-IR): 470 nM; IC50 ([1]; Mus musculus, 4T1): 190 nM |
| 630 nM | CCC(CC)NS(=O)(=O)c1ccccc1Nc1nc(Nc2ccc(OC3CCN(C)CC3)cc2OC)ncc1Cl [Example 23-1] | – |
| – | CCC(CC)NS(=O)(=O)c1ccccc1Nc1nc(Nc2ccc(OC3CCN(C)C3)cc2OC)ncc1Cl (stereo not shown) [Example 23-7] | IC50 (FAK (Tyr397)): 3000 nM; IC50 (human FAK kinase domain): 2.1 nM; IC50 ([1]; Mus musculus, 4T1): 840 nM |
| 90 nM | CCCS(=O)(=O)c1ccccc1Nc1nc(Nc2ccc(N3CCN(C(C)=O)CC3)cc2OC)ncc1Cl [Example 26-2] | – |
| 290 nM | CCCS(=O)(=O)c1ccccc1Nc1nc(Nc2ccc(N3CCC(O)CC3)cc2OC)ncc1Cl [Example 26-4] | – |
| 500 nM | CCCS(=O)(=O)c1ccccc1Nc1nc(Nc2ccc(N3CCN(C(C)=O)C(C)(C)C3)cc2OC)ncc1Cl [Example 26-11] | – |
| 260 nM | CCCS(=O)(=O)c1ccccc1Nc1nc(Nc2cc(N3CCOCC3)ccc2OC)ncc1Cl [Example 26-17] | – |
| – | CCCS(=O)(=O)c1ccccc1Nc1nc(Nc2ccc(C(=O)N3CCOCC3)cc2OC)ncc1Cl [Example 26-20] | IC50 (FAK (Tyr397)): 140 nM; IC50 (human FAK kinase domain): 10 nM; IC50 (human IGF-IR): 490 nM |
| – | CCCS(=O)(=O)c1ccccc1Nc1nc(Nc2ccc(N3CCN(C(C)C)CC3)cc2OC)ncc1Cl [Example 26-23] | IC50 [1]: 90 nM |
| – | Cc1cc(N2CCOCC2)ccc1Nc1ncc(Cl)c(Nc2ccccc2S(=O)(=O)C(C)C)n1 [Example 28-6] | IC50 [1]: 560 nM |
| – | CCN1CCN(c2ccc(Nc3ncc(Cl)c(Nc4ccccc4S(=O)(=O)C(C)C)n3)c(OC)c2)CC1 [Example 28-12] | IC50 [1]: 430 nM |
| 290 nM | COc1cc(N2CCC(N3CCOCC3)CC2)ccc1Nc1ncc(Cl)c(Nc2ccccc2S(=O)(=O)C(C)C)n1 [Example 28-13] | – |
| 600 nM | COc1cc(N2CCC(O)CC2)ccc1Nc1ncc(Cl)c(Nc2ccccc2S(=O)(=O)C(C)C)n1 [Example 28-16] | – |
| – | COc1cc(OC2CCN(C)CC2)ccc1Nc1ncc(Cl)c(Nc2ccccc2S(=O)(=O)C(C)C)n1 [Example 28-19] | IC50 (FAK (Tyr397)): 500 nM; IC50 (human FAK kinase domain): 3.7 nM; IC50 ([1]; Mus musculus, 4T1): 140 nM |
| 500 nM | COc1cc(N2CCC[C@H](C(N)=O)C2)ccc1Nc1ncc(Cl)c(Nc2ccccc2S(=O)(=O)C(C)C)n1 [Example 28-27] | – |
| 1000 nM | COc1cc(N2CCC[C@@H](C(N)=O)C2)ccc1Nc1ncc(Cl)c(Nc2ccccc2S(=O)(=O)C(C)C)n1 [Example 28-28] | – |
| – | CC(C)S(=O)(=O)c1ccccc1Nc1nc(Nc2cccc3c2OCC3)ncc1Cl [Example 28-31] | IC50 [1]: 1060 nM |

| Structure (SMILES) | IC50 [2] | also measured |
| --- | --- | --- |
| CNS(=O)(=O)c1ccccc1Nc1nc(Nc2ccc(N3CCCC(C(N)=O)C3)cc2OC)ncc1Br (stereo not shown) [Example 3-68] | 1000 nM | – |
| COc1cc(N2CCC(N(C)C)C2)ccc1Nc1ncc(Cl)c(Nc2ccccc2S(=O)(=O)NC(C)C)n1 (stereo not shown) [Example 19-9] | 300 nM | – |
